{"source": "patent US20260224658A1", "about": "“PRODUCTS AND METHODS FOR THE DIAGNOSIS AND TREATMENT OF P[…]” (priority 2023, published 2026)", "key": {"MPAO1 [1]": {"tested_on": "MPAO1", "assay": "microbe, parasite or virus in culture", "format": "cell-based, Pseudomonas aeruginosa", "conditions": "strain MPAO1", "description": "(§1) MIC experiments were performed using biological triplicates."}, "PAO1": {"tested_on": "PAO1", "assay": "microbe, parasite or virus in culture", "format": "cell-based, Pseudomonas aeruginosa", "conditions": "strain PAO1", "description": "as §1"}, "MPAO1-ΔmutL [2]": {"tested_on": "MPAO1-ΔmutL", "assay": "MIC, microbroth dilution assay", "format": "cell-based, Pseudomonas aeruginosa", "conditions": "strain ΔmutL", "description": "as §1"}, "MPAO1-ΔmutS [3]": {"tested_on": "MPAO1-ΔmutS", "assay": "MIC, microbroth dilution assay", "format": "cell-based, Pseudomonas aeruginosa", "conditions": "strain ΔmutS", "description": "as §1"}, "MPAO1-ΔmutL [4]": {"tested_on": "MPAO1-ΔmutL", "assay": "In vitro adaptive evolution (serial passaging) with MIC determination", "format": "cell-based, Pseudomonas aeruginosa", "conditions": "MPAO1-ΔmutL, monotherapy", "description": "(§2) MICs were determined via microbroth dilution assay in 96-well culture plates with 2-fold serial dilutions of tested antibiotic in Mueller-Hinton (cation-adjusted) broth, inoculated with 50 μL of 2.75×10^5 CFU/mL of each bacterial strain and incubated at 37° C., 200 rpm for 24 hours. MIC experiments were performed using biological triplicates.\n(§3) Serial passaging of bacterial strains was performed in 96-well culture plates with 2-fold serial dilutions of antibiotic in MH broth, inoculated with 50 μL 2.75×10^5 CFU/mL of each strain and incubated at 37° C., 200 rpm for 24 hours. […] The bacteria were then serially passaged in the same antibiotic and MIC determined for all antibiotics (aztreonam, ciprofloxacin, D-CONGA, D-CONGA-Q7, polymyxin B). See Antimicrobial susceptibility testing section. The bacteria were serially passaged a total of 10 times.\n(§4) All resistance acquisition data was analyzed in units of fold-change to normalize for differences in starting MIC across strains. Fold-change in MIC data for all strains and treatment groups was natural log-transformed and simple linear regression was performed considering each replicate fold-change value as an individual point. Slope, standard error of slope, and total number of values of each treatment group of interest were analyzed via unpaired t-test (ΔmutS vs WT) or ordinary one-way ANOVA (cross-resistance acquisition of ΔmutS+AB vs −AB vs WT), and α-values were corrected for multiple comparisons using the Bonferroni method. Differences in estimated mutation rate across treatment groups were determined via ordinary one-way ANOVA (Brown-Forsythe test). For all statistical tests, p<0.05 was considered significant. All figures were created and statistical tests were done using GraphPad Prism 9.3.1."}, "MPAO1-ΔmutS [5]": {"tested_on": "MPAO1-ΔmutS", "assay": "In vitro adaptive evolution (serial passaging) with MIC determination", "format": "cell-based, Pseudomonas aeruginosa", "conditions": "for cross-resistance to antibiotics induced by treatment / cross-resistance to peptides induced by treatment: MPAO1-ΔmutS evolved in the named drug; for resistance acquisition on repeated exposure to the drug: MPAO1-ΔmutS, monotherapy", "description": "as §2, §3, §4"}, "MPAO1 [6]": {"tested_on": "MPAO1", "assay": "In vitro adaptive evolution (serial passaging) with MIC determination", "format": "cell-based, Pseudomonas aeruginosa", "description": "as §2, §3, §4"}, "[7]": {"tested_on": "predicted MMR-deficient clinical isolates", "assay": "In vitro adaptive evolution of clinical isolates from pwCF", "format": "cell-based, Pseudomonas aeruginosa", "conditions": "isolates CFP6_Pa2, CFP8_Pa1 and CFP9_Pa1", "description": "as §1"}, "[8]": {"tested_on": "drug-resistant clinical isolates of Staphylococcus aureus, Klebsiella pneumoniae, Acinetobacter baumannii, and P. aeruginosa", "conditions": "in vitro and in vivo, reference 23; cited from earlier work"}, "[9]": {"tested_on": "wild type P. aeruginosa (PAO1)", "conditions": "reference 23; cited from earlier work"}, "[10]": {"conditions": "MPAO1-ΔmutS evolved in AZ + COL"}, "[11]": {"conditions": "MPAO1-ΔmutS passaged with No Antibiotic (Table 4)"}, "[12]": {"conditions": "MPAO1-ΔmutS passaged with No Antibiotic (Table 8)"}, "[13]": {"conditions": "MPAO1 passaged with No Antibiotic (Table 4)"}, "[14]": {"conditions": "MPAO1 passaged with No Antibiotic (Table 8)"}}, "note": "Where a SMILES comes first, the peptide text is derived from it. [ ]: non-standard residue; d: D form."}
{"molecule": "Colistin", "values": [{"measurement": "MIC, average of triplicates", "setting": "MPAO1 [1]", "result": 2, "unit": "µg/mL"}, {"measurement": "MIC, average of triplicates", "setting": "PAO1", "result": 2, "unit": "µg/mL"}, {"measurement": "MIC, average of triplicates", "setting": "MPAO1-ΔmutL [2]", "result": 2, "unit": "µg/mL"}, {"measurement": "MIC, average of triplicates", "setting": "MPAO1-ΔmutS [3]", "result": 2, "unit": "µg/mL"}, {"measurement": "resistance acquisition on repeated exposure to the drug", "setting": "MPAO1-ΔmutL [4]", "result": "rapid resistance acquisition"}, {"measurement": "Average MIC at end point", "setting": "MPAO1-ΔmutS [5]; [10]", "result": 3, "unit": "µg/mL"}, {"measurement": "fold-change relative to starting MIC before treatment", "setting": "MPAO1-ΔmutS [5]; [10]", "result": 1.67}, {"measurement": "Average MIC at end point", "setting": "MPAO1-ΔmutS [5]; MPAO1-ΔmutS evolved in COL", "result": 53, "unit": "µg/mL"}, {"measurement": "fold-change relative to starting MIC before treatment", "setting": "MPAO1-ΔmutS [5]; MPAO1-ΔmutS evolved in COL", "result": 20}, {"measurement": "cross-resistance to antibiotics induced by treatment", "setting": "MPAO1-ΔmutS [5]", "result": "failed to induce marked cross-resistance to antibiotics"}, {"measurement": "cross-resistance to peptides induced by treatment", "setting": "MPAO1-ΔmutS [5]", "result": "induced cross-resistance to other peptides"}, {"measurement": "Average MIC at end point", "setting": "MPAO1-ΔmutS [5]; [11]", "result": 2, "unit": "µg/mL"}, {"measurement": "fold-change relative to starting MIC before treatment", "setting": "MPAO1-ΔmutS [5]; [11]", "result": 1}, {"measurement": "Average MIC at end point", "setting": "MPAO1-ΔmutS [5]; [12]", "result": 2, "unit": "µg/mL"}, {"measurement": "fold-change relative to starting MIC before treatment", "setting": "MPAO1-ΔmutS [5]; [12]", "result": 1}, {"measurement": "resistance acquisition on repeated exposure to the drug", "setting": "MPAO1-ΔmutS [5]", "result": "Rapid acquisition of resistance"}, {"measurement": "resistance acquisition on repeated exposure to the drug", "setting": "MPAO1 [6]; MPAO1, monotherapy, more slowly than MPAO1-ΔmutS", "result": "eventually displayed an elevated minimum inhibitory concentration (MIC)"}, {"measurement": "Average MIC at end point", "setting": "MPAO1 [6]; MPAO1 evolved in AZ + COL", "result": 5, "unit": "µg/mL"}, {"measurement": "fold-change relative to starting MIC before treatment", "setting": "MPAO1 [6]; MPAO1 evolved in AZ + COL", "result": 2.67}, {"measurement": "Average MIC at end point", "setting": "MPAO1 [6]; MPAO1 evolved in COL", "result": 4, "unit": "µg/mL"}, {"measurement": "fold-change relative to starting MIC before treatment", "setting": "MPAO1 [6]; MPAO1 evolved in COL", "result": 2}, {"measurement": "Average MIC at end point", "setting": "MPAO1 [6]; [13]", "result": 2, "unit": "µg/mL"}, {"measurement": "fold-change relative to starting MIC before treatment", "setting": "MPAO1 [6]; [13]", "result": 1}, {"measurement": "Average MIC at end point", "setting": "MPAO1 [6]; [14]", "result": 2, "unit": "µg/mL"}, {"measurement": "fold-change relative to starting MIC before treatment", "setting": "MPAO1 [6]; [14]", "result": 1}, {"measurement": "resistance acquisition under monotherapy", "setting": "[7]", "result": "rapidly acquired resistance"}]}
{"molecule": "CC(C)C[C@@H](NC(=O)[C@@H](CCC(N)=O)NC(=O)[C@@H](CCCNC(=N)N)NC(=O)[C@@H](CCCNC(=N)N)NC(=O)[C@@H](C)NC(=O)[C@@H](Cc1c[nH]c2ccccc12)NC(=O)[C@@H](CCCNC(=N)N)NC(=O)[C@H](N)CCCNC(=N)N)C(=O)N[C@H](C)C(=O)N[C@H](Cc1ccccc1)C(=O)N[C@H](C)C(=O)N[C@H](Cc1ccccc1)C(=O)N[C@H](CCCNC(=N)N)C(=O)N[C@H](CCCNC(=N)N)C(N)=O", "note": "[D-CONGA-Q7] (H-[dR][dR][dW][dA][dR][dR][dQ][dL][dA][dF][dA][dF][dR][dR]-NH2; N-terminus and C-terminus assumed)", "values": [{"measurement": "fold-change relative to starting MIC before treatment", "setting": "MPAO1-ΔmutS [5]; MPAO1-ΔmutS evolved in AZ", "result": 0.42}, {"measurement": "fold-change relative to starting MIC before treatment", "setting": "MPAO1-ΔmutS [5]; [10]", "result": 2}, {"measurement": "fold-change relative to starting MIC before treatment", "setting": "MPAO1-ΔmutS [5]; MPAO1-ΔmutS evolved in AZ + D-CONGA", "result": 0.67}, {"measurement": "fold-change relative to starting MIC before treatment", "setting": "MPAO1-ΔmutS [5]; MPAO1-ΔmutS evolved in AZ + D-CONGA-Q7", "result": 0.67}, {"measurement": "fold-change relative to starting MIC before treatment", "setting": "MPAO1-ΔmutS [5]; MPAO1-ΔmutS evolved in COL", "result": 1.75}, {"measurement": "fold-change relative to starting MIC before treatment", "setting": "MPAO1-ΔmutS [5]; MPAO1-ΔmutS evolved in Chl", "result": 1}, {"measurement": "fold-change relative to starting MIC before treatment", "setting": "MPAO1-ΔmutS [5]; MPAO1-ΔmutS evolved in D-CONGA", "result": 2.67}, {"measurement": "fold-change relative to starting MIC before treatment", "setting": "MPAO1-ΔmutS [5]; MPAO1-ΔmutS evolved in D-CONGA-Q7", "result": 3.33}, {"measurement": "cross-resistance to antibiotics induced by treatment", "setting": "MPAO1-ΔmutS [5]", "result": "failed to induce marked cross-resistance to antibiotics"}, {"measurement": "cross-resistance to peptides induced by treatment", "setting": "MPAO1-ΔmutS [5]", "result": "induced cross-resistance to other peptides"}, {"measurement": "fold-change relative to starting MIC before treatment", "setting": "MPAO1-ΔmutS [5]; [11]", "result": 1}, {"measurement": "fold-change relative to starting MIC before treatment", "setting": "MPAO1-ΔmutS [5]; [12]", "result": 1.38}, {"measurement": "resistance acquisition on repeated exposure to the drug", "setting": "MPAO1-ΔmutS [5]", "result": "developed resistance"}, {"measurement": "fold-change relative to starting MIC before treatment", "setting": "MPAO1 [6]; MPAO1 evolved in AZ", "result": 1.2}, {"measurement": "fold-change relative to starting MIC before treatment", "setting": "MPAO1 [6]; MPAO1 evolved in AZ + COL", "result": 1}, {"measurement": "fold-change relative to starting MIC before treatment", "setting": "MPAO1 [6]; MPAO1 evolved in AZ + D-CONGA", "result": 1.2}, {"measurement": "fold-change relative to starting MIC before treatment", "setting": "MPAO1 [6]; MPAO1 evolved in AZ + D-CONGA-Q7", "result": 1.2}, {"measurement": "fold-change relative to starting MIC before treatment", "setting": "MPAO1 [6]; MPAO1 evolved in COL", "result": 1}, {"measurement": "fold-change relative to starting MIC before treatment", "setting": "MPAO1 [6]; MPAO1 evolved in D-CONGA", "result": 1}, {"measurement": "fold-change relative to starting MIC before treatment", "setting": "MPAO1 [6]; MPAO1 evolved in D-CONGA-Q7", "result": 1.33}, {"measurement": "fold-change relative to starting MIC before treatment", "setting": "MPAO1 [6]; [13]", "result": 1}, {"measurement": "fold-change relative to starting MIC before treatment", "setting": "MPAO1 [6]; [14]", "result": 1}, {"measurement": "efficacy against drug-resistant clinical isolates", "setting": "[8]", "result": "efficacious in vitro and in vivo"}, {"measurement": "induction of resistance", "setting": "[9]", "result": "has not been observed"}]}
